Data published in US20250163016A1, “PYRIDINE DERIVATIVE, PREPARATION METHOD THEREFOR AND USE THEREOF” (CHENGDU EASTON BIOPHARMACEUTICALS CO., LTD., priority 2022, published 2025).

What was measured:
[1] = Liver microsome stability, humans; format: in vitro ADME; conditions: Humans liver microsomes; for CLint scaled / half-life: human; for half-life: NADPH, 37° C.
Protocol: (§1) A liver microsome in-vitro warm incubation method used liver microsomes, supplemented by an NADPH regeneration system, to simulate physiological environmental conditions in vitro for metabolic reaction, after a certain period of reaction, LC-MS/MS was used to determine prototype drugs and metabolites in a warm incubation solution, and the content was preliminarily analyzed. Studying the liver microsome stability of drugs in different species was crucial for understanding a change process of the drugs in vivo.
(§2) 2.1. Liver Microsomes in Different Species Including Rats, Mice, Humans, Dogs and Monkeys
(§3) According to the requirements of the instructions of a Phase I Metabolic Stability Kit, a liver microsome incubation system was prepared, and according to a sequence, a mixed system of a PBS, liver microsomes, an NADPH regeneration system solution A and an NADPH regeneration system solution B, as well as substances to be tested were added in sequence respectively, and were incubated at 37° C. Each sample was parallelized 3 times, with a sample without an NADPH generation system as a negative control, after 0, 5, 15, 30, 45, and 60 min, equal volumes of pre-cooled acetonitrile were added to terminate the reaction respectively, and the prototype drug content in a warm incubation solution was determined by LC-MS/MS.

[2] = Liver microsome stability, monkeys; format: in vitro ADME; conditions: Monkeys liver microsomes; for CLint scaled / half-life: monkey; for half-life: NADPH, 37° C.
Protocol: as §1, §2, §3

[3] = Pharmacokinetics of oral administration of rats; format: in vivo; conditions: male, rat, SD rats, p.o. 5.0 mg/kg, plasma
Protocol: With SD rats as tested animals, blood drug concentrations in plasma at different moments after oral administration of the compounds of the present application by the rats in a clarification kit mode were determined using an LC-MS/MS method. Pharmacokinetic parameters of the compounds of the present application in the rats were obtained, and pharmacokinetic characteristics of the compounds were studied.
• SD rats, male, weight 180-220 g, 3 rats per group. The animals were fed in an animal house after being purchased, an adaptation period was at least 3 days, and they were used for tests after passing quarantine.
According to Table 4, each group of rats was given the corresponding tested drugs or positive drugs by gavage, before administration, and 15 min, 30 min, 1 h, 2 h, 4 h, 6 h, 8 h, and 24 h after administration, a fixed volume of blood was collected through eye sockets and placed in an EDTA-K2 anticoagulant tube, centrifuging was carried out at 8000 rpm for 1 min to separate plasma into a centrifuge tube, and the plasma was frozen in a −20° C. refrigerator.
The plasma at each time point stored at −20° C. was taken out, then acetonitrile was added, after whirling at 1500 revolutions for 2 min, centrifuging was carried out for 15 min (3500 r/min), and a fixed volume of solution supernatant was taken for LC-MS/MS analysis.
Non-compartment model fitting was carried out on pharmacokinetic behaviors of the tested compounds, and DAS3.31 software was adopted to calculate main pharmacokinetic parameters (T1/2, Tmax, Cmax, AUClast, etc.).

[4] = Liver microsome stability, mice; format: in vitro ADME; conditions: Mice liver microsomes; for CLint scaled / half-life: mouse; for half-life: NADPH, 37° C.
Protocol: as §1, §2, §3

[5] = Liver microsome stability, dogs; format: in vitro ADME; conditions: Dogs liver microsomes; for CLint scaled / half-life: dog; for half-life: NADPH, 37° C.
Protocol: as §1, §2, §3

NCI-H1417 cells = assay: NCI-H1417 cell proliferation inhibition test (Celltiter GLO); format: cell-based; conditions: Homo sapiens, 168 h, NCI-H1417, 7 days culture
Protocol: Research had confirmed that LSD1 played a crucial role in the occurrence process of various types of cancers, including small cell lung cancer (SCLC) and acute myeloid leukemia (AML). Therefore, a human small cell lung cancer (NCI-H1417) cell line was used to determine the ATP content in cells at different drug concentrations using a Celltiter GLO assay kit, and the cell activity was reflected by luminescence intensity. IC50 values of different compounds on the NCI-H1417 cells were calculated using inhibition rates. The inhibitory effects of the compounds in the present application on the proliferation of the NCI-H1417 cells were studied to evaluate the anti-tumor efficacy of the tested compounds at the cellular level.
• Day 1 Cells were seeded into the 384-well cell culture plate and placed in a 37° C. 5% CO2 cell incubator to be cultured overnight. • Day 0 The compound to be tested was prepared into a 10 mM mother liquid using DMSO, starting from 1 μM, diluted by 3 folds, with 10 concentration points and double duplicate wells. A diluted compound was added into the 384-well cell culture plate and placed in a 37° C. 5% CO2 cell incubator to be cultured for 7 days. The concentration of the DMSO in a cell culture system was 0.1%. • Day 7 Celltiter GLO was added into the 384-well cell culture plate according to a volume ratio of culture system:Celltiter GLO=1:1, light-shielded oscillation was carried out on a plate oscillator for 3 min, then the cell culture plate was placed at the room temperature for 30 min with light shielded, and the plate was read using a multifunctional microplate reader chemical light emitting module.
An inhibition percentage was calculated by utilizing luminescence intensity of the above DMSO group (with DMSO added), test group (with the tested compound and a positive control solution added) and blank group (not treating cells), a calculation formula being
Using a logarithm of the concentration as an X axis and the percentage inhibition rate as a Y axis, a dose-response curve was fitted using a formula log(inhibitor) vs. response-Variable slope (Four parameters) of analysis software Graphpad Prism 8 to obtain the IC50 value of each compound on NCI-H1417 proliferation inhibition activity.

[6] = Liver microsome stability, rats; format: in vitro ADME; conditions: Rats liver microsomes; for CLint scaled / half-life: rat; for half-life: NADPH, 37° C.
Protocol: as §1, §2, §3

Compound	Remaining (T = 60 min) [1] [%]	CLint scaled [1] [mL/min/kg]	half-life [1] [h]	Remaining (T = 60 min) [2] [%]	CLint scaled [2] [mL/min/kg]	half-life [2] [h]	AUC(0-t) [3] [ng·h/mL]	Cmax [3] [ng/mL]	Tmax [3] [h]	half-life [3] [h]	Remaining (T = 60 min) [4] [%]	CLint scaled [4] [mL/min/kg]	half-life [4] [h]	Remaining (T = 60 min) [5] [%]	CLint scaled [5] [mL/min/kg]	half-life [5] [h]	IC50 (NCI-H1417 cells) [nM]	Remaining (T = 60 min) [6] [%]	CLint scaled [6] [mL/min/kg]	half-life [6] [h]
CC(C)(O)Cn1ncc2cc(-c3c(C#N)cc(N4CCC(N)CC4)nc3-c3ccc(C#N)c(F)c3)c(F)cc21 [Compound 16, 6-(4-aminopiperid-1-yl)-2-(4-cyano-3-fluorophenyl)-3-(6-fluoro-1-(2-hydroxyl-2-methylpropyl)-1H-indazol-5-yl)isonicotinonitrile]	70.8	< 8.6	> 2.42	62.0	19.2	1.62	561 ± 347	69.9 ± 33.5	4	3.46 ± 0.02	77.8	< 38	> 2.42	76.4	< 13.8	> 2.42	2.79	72.1	< 17.3	> 2.42
COc1ccc(-c2c(-c3ccc(C#N)c(F)c3)nc(N3CCC(N)CC3)n(C)c2=O)cc1F [CC-90011, reference compound]	67.2	13.2	1.57	56.8	25	1.25	356 ± 46.5	48.9 ± 12.5	3.33 ± 2.31	1.44 ± 0.52	72.2	42.2	2.17	76.6	15.8	2.1	22.9	58.6	31.2	1.33
CC(C)(O)Cn1nc(F)c2cc(-c3c(C#N)cc(N4CCC(N)CC4)nc3-c3ccc(C#N)c(F)c3)c(F)cc21 [Compound 36, 6-(4-aminopiperid-1-yl)-2-(4-cyano-3-fluorophenyl)-3-(3,6-difluoro-1-(2-hydroxyl-2-methylpropyl)-1H-indazol-5-yl)isonicotinonitrile]	81.7	< 8.6	> 2.42	72.1	16.9	1.84	769 ± 361	100 ± 54.4	4.67 ± 1.15	3.57 ± 0.34	75.5	< 38	> 2.42	76.3	< 13.8	> 2.42	4	76.1	< 17.3	> 2.42
